In ChEMBL document CHEMBL1155152, “Increased expression of ampC in Pseudomonas aeruginosa mutants selected with ciprofloxacin” (2007):
In brackets after ≈: the same amount, converted by molar mass.

Legend:
Type in all cases: functional
Pseudomonas aeruginosa [1] = assay: Increase in ampD gene expression in Pseudomonas aeruginosa 164M1-84C overexpressing mexCD-oprJ genes by RT-PCR relative to wild-type
Pseudomonas aeruginosa [2] = assay: Increase in ampDh3 gene expression in Pseudomonas aeruginosa 164M1-84C overexpressing mexCD-oprJ genes by RT-PCR relative to wild-type
Pseudomonas aeruginosa [3] = assay: Increase in ampDh2 gene expression in Pseudomonas aeruginosa 164M1 by RT-PCR relative to wild-type
Pseudomonas aeruginosa [4] = assay: Increase in ampD gene expression in Pseudomonas aeruginosa 164M1-94C overexpressing mexCD-oprJ genes by RT-PCR relative to wild-type
Pseudomonas aeruginosa [5] = assay: Antibacterial activity against Pseudomonas aeruginosa 164M1-84C overexpressing mexCD-oprJ genes
Pseudomonas aeruginosa [6] = assay: Antibacterial activity against Pseudomonas aeruginosa 164M1 harboring p26PAD1 plasmid containing ampD gene
Pseudomonas aeruginosa [7] = assay: Increase in ampC gene expression in mexCD-oprJ overexpressing Pseudomonas aeruginosa 164M1-94C harboring p26PAD1 plasmid containing ampD gene by RT-PCR relative to wild-type
Pseudomonas aeruginosa [8] = assay: Increase in ampDh2 gene expression in Pseudomonas aeruginosa 164M1-94C overexpressing mexCD-oprJ genes by RT-PCR relative to wild-type
Pseudomonas aeruginosa [9] = assay: Increase in ampC gene expression in Pseudomonas aeruginosa 164M1-84C overexpressing mexCD-oprJ genes by RT-PCR relative to wild-type
Pseudomonas aeruginosa [10] = assay: Increase in ampC gene expression in Pseudomonas aeruginosa 164M1 harboring p26PAD1 plasmid containing ampD gene by RT-PCR relative to wild-type
Pseudomonas aeruginosa [11] = assay: Antibacterial activity against mexCD-oprJ overexpressing Pseudomonas aeruginosa 164M1-94C harboring p26PAD1 plasmid containing ampD gene
Pseudomonas aeruginosa [12] = assay: Increase in ampC gene expression in Pseudomonas aeruginosa 164M1-94C overexpressing mexCD-oprJ genes by RT-PCR relative to wild-type
Pseudomonas aeruginosa [13] = assay: Increase in ampD gene expression in Pseudomonas aeruginosa 164M1 by RT-PCR relative to wild-type
Pseudomonas aeruginosa [14] = assay: Antibacterial activity against mexCD-oprJ overexpressing Pseudomonas aeruginosa 164M1-84C harboring p26PAD1 plasmid containing ampD gene
Pseudomonas aeruginosa [15] = assay: Antibacterial activity against Pseudomonas aeruginosa 164
Pseudomonas aeruginosa [16] = assay: Increase in ampDh3 gene expression in Pseudomonas aeruginosa 164M1-94C overexpressing mexCD-oprJ genes by RT-PCR relative to wild-type
Pseudomonas aeruginosa [17] = assay: Increase in ampDh3 gene expression in Pseudomonas aeruginosa 164M1 by RT-PCR relative to wild-type
Pseudomonas aeruginosa [18] = assay: Antibacterial activity against Pseudomonas aeruginosa 164M1-94C overexpressing mexCD-oprJ genes
Pseudomonas aeruginosa [19] = assay: Increase in ampDh2 gene expression in Pseudomonas aeruginosa 164M1-84C overexpressing mexCD-oprJ genes by RT-PCR relative to wild-type
Pseudomonas aeruginosa [20] = assay: Antibacterial activity against Pseudomonas aeruginosa 164M1
Pseudomonas aeruginosa [21] = assay: Increase in ampC gene expression in Pseudomonas aeruginosa 164M1 by RT-PCR relative to wild-type

## CC(C)(O/N=C(\C(=O)N[C@@H]1C(=O)N2C(C(=O)[O-])=C(C[n+]3ccccc3)CS[C@H]12)c1csc(N)n1)C(=O)O [CEFTAZIDIME]
Pseudomonas aeruginosa [1]
  fold change (FC): 1.2
Pseudomonas aeruginosa [2]
  fold change (FC): 1.6
Pseudomonas aeruginosa [3]
  fold change (FC): 2.6
Pseudomonas aeruginosa [4]
  fold change (FC): 1.1
Pseudomonas aeruginosa [5]
  MIC: 48 µg/mL (≈ 87.8 µM)
Pseudomonas aeruginosa [6]
  MIC: 4 µg/mL (≈ 7.32 µM)
Pseudomonas aeruginosa [7]
  fold change (FC): 0.91
Pseudomonas aeruginosa [8]
  fold change (FC): 2.6
Pseudomonas aeruginosa [9]
  fold change (FC): 1324
Pseudomonas aeruginosa [10]
  fold change (FC): 1.1
Pseudomonas aeruginosa [11]
  MIC: 2 µg/mL (≈ 3.66 µM)
Pseudomonas aeruginosa [12]
  fold change (FC): 1165
Pseudomonas aeruginosa [13]
  fold change (FC): 1.3
Pseudomonas aeruginosa [14]
  MIC: 2 µg/mL (≈ 3.66 µM)
Pseudomonas aeruginosa [15]
  MIC: 2 µg/mL (≈ 3.66 µM)
Pseudomonas aeruginosa [16]
  fold change (FC): 3.1
Pseudomonas aeruginosa [17]
  fold change (FC): 2.1
Pseudomonas aeruginosa [18]
  MIC: 48 µg/mL (≈ 87.8 µM)
Pseudomonas aeruginosa [19]
  fold change (FC): 1.5
Pseudomonas aeruginosa [20]
  MIC: 96 µg/mL (≈ 176 µM)
Pseudomonas aeruginosa [21]
  fold change (FC): 99
